We go through 2 compounds from patent US9481669B2, “Pladienolide pyridine compounds and methods of use” (Eisai R&D Management Co., Ltd., priority 2014, dated 2016).

In data set [1] the test system is WiDr-R cells (colon cancer cells, SF3B1 R1074H mutation). As to conditions: cited from earlier work.
Data set [2] has as its system reporter gene controlled by human VEGF promoter. Conditions: read-out: IC50, VEGF-promoted gene expression; cited from earlier work.
Data set [3] deals with U251 human glioma cells. Conditions: U251 human glioma cells in vitro; read-out: IC50, glioma cell proliferation; cited from earlier work.
The conditions of data set [4]: patients; administered as intravenous infusion; cited from earlier work.
Data set [5] can be described thus: pH stability measurement (UPLC, 0.1 N HCl). Conditions: buffer, 24 h, 148 µM, pH 1. The data set is classed as physicochemical. The protocol:
Compounds were provided in 96-well plates and tested in triplicate. Four microliters of a 10 mM stock solution of compound in DMSO were distributed into each of three wells. The plate was stored at or below −20° C. until the day of the analysis. Methanol (HPLC grade) and 0.1 N HCl (EMD catalog HX0603A-6) were used for dilutions. Acetonitrile (HPLC grade), water (Milli-Q filtered), trifluoroacetic acid (spectral grade) and 0.2M phosphate buffer (Wako, catalog no. 163-14471) were used to prepare the mobile phase for the two analyses.
Stability data was obtained using a Waters Acquity UPLC equipped with a UV detector (Waters TUV) and single quadrupole MS detector (Waters SQD). The 96-well plate containing the compound(s) of interest was(were) removed from the freezer and allowed to warm to room temperature for one hour. The UPLC was primed, equilibrated and the system performance was verified by injecting a standard. After 1 hour, each of the three wells was diluted with 266 μL 0.1 N HCl to give pH=1. The plate was covered and placed on a shaker (Eppindorf Thermomixer R) for 45 minutes at 600 rpm. The plate was removed from the shaker, and the contents of each well were filtered through a filtration plate (Millipore catalog no. MSSLBPC50) by vacuum and injected into the UPLC. After approximately 24 hours, the contents of the wells were re-injected into the UPLC.
Stability in the various buffers was measured by comparing the peak area- % of the analyte in methanol versus the peak area- % of the analyte at the same retention time in 0.1 N HCl buffer in the 24 hr time point injection.

Pladienolide B: in data set [1], the “resistance of WiDr-R cells in terms of growth inhibition” value is “resistant to pladienolide B in terms of growth inhibition”. For the same compound, the IC50 was 1.8 nM in data set [2] and 3.5 nM in data set [3].

In the case of `CCC(O)C(C)C1OC1CC(C)(O)/C=C/C=C(\C)C1OC(=O)CC(O)CCC(C)(O)C(OC(=O)N2CCN(C3CCCCCC3)CC2)/C=C/C1C` (centres unmarked) [Compound E7107, (8E,12E,14E)-7-((4-Cycloheptylpiperazin-1-yl)carbonyl)oxy-3,6,16,21-tetrahydroxy-6,10,12,16,20-pentamethyl-18,19-epoxytricosa-8,12,14-trien-11-olide, reference compound], the oral bioavailability result in data set [4] is reported as “insufficient oral bioavailability”. The “% parent remaining (pH = 1, 24 hours)” value in data set [5] is listed as 44%.
